Source: patent publication US20110009381A1, “SOLUBILIZED THIAZOLOPYRIDINES” (Sirtis Pharmaceuticals, Inc., priority 2007, published 2011)

Target: T1, SIRT1 (Homo sapiens, UniProt Q96EB6)
T1 sequence (Q96EB6 1-747): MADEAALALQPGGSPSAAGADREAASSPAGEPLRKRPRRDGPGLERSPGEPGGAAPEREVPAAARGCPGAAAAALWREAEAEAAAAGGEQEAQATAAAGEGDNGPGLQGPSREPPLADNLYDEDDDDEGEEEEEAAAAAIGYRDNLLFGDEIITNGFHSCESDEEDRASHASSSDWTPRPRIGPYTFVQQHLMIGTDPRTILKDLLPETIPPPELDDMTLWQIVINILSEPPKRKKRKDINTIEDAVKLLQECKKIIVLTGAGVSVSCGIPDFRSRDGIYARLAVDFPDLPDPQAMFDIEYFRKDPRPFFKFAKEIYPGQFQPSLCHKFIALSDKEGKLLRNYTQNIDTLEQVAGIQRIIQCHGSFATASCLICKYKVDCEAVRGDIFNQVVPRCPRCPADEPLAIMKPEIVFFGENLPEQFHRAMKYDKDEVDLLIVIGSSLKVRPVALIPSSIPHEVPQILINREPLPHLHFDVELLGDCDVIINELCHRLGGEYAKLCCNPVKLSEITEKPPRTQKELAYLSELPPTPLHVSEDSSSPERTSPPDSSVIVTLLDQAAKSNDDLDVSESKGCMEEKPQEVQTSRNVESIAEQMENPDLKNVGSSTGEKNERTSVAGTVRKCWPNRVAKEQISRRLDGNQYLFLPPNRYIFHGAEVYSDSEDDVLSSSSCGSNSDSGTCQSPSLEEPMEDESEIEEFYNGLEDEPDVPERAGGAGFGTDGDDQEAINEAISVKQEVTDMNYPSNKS
Experiment: Mass spectrometry based assay to identify modulators of SIRT1 activity (deacetylation of p53-based acetylated peptide substrate)
Type: biochemical
Settings: 10 nM SIRT1, 0.5 μM peptide substrate, 120 μM βNAD+, 25 minutes at 25° C.
Method in brief: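 Activation measured on His-tagged SIRT1 (10 nM, E. coli-expressed) deacetylating a 0.5 μM p53-derived acetyl-peptide with 120 μM βNAD^+ for 25 min at 25 °C, pH 8 Tris-acetate. After formic acid stop, mass spectrometry quantified acetylated versus deacetylated peptide, referenced to DMSO and nicotinamide controls. Reported as EC1.5 and maximum fold activation.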

FOLD ACT. (percent maximum fold activation), B (Fold Activation≧150% and <300%):
O=C(Nc1ccccc1-c1nc2cccnc2s1)c1cc(NC2CCN(C(=O)c3ccccc3)CC2)nc(-c2ccccc2)n1 [Compound 136]
Cc1cccc(-c2nc(C(=O)Nc3ccccc3-c3nc4cccnc4s3)cc(N3CCOCC3)n2)c1 [Compound 148]
O=C1CN(c2cc(C(=O)Nc3ccccc3-c3nc4cccnc4s3)nc(-c3ccccc3)n2)CCN1 [Compound 149]
CN1CCN(c2cc(C(=O)Nc3ccccc3-c3nc4cccnc4s3)nc(-c3ccccc3)n2)CC1=O [Compound 151]

FOLD ACT. (percent maximum fold activation), A (Fold activation≧300%):
CS(=O)(=O)N1CCC(Nc2cc(C(=O)Nc3ccccc3-c3nc4cccnc4s3)nc(-c3ccccc3)n2)CC1 [Compound 135]
COCCN(C)c1cc(C(=O)Nc2ccccc2-c2nc3cccnc3s2)nc(-c2ccccc2)c1 [Compound 137]
Cc1cccc(-c2nc(C(=O)Nc3ccccc3-c3nc4cccnc4s3)cc(N3CCN(C(C)C)CC3)n2)c1 [Compound 138]
Cc1cccc(-c2nc(C(=O)Nc3ccccc3-c3nc4cccnc4s3)cc(N3CCNCC3)n2)c1 [Compound 139]
CC(C)CN1CCC(Nc2cc(C(=O)Nc3ccccc3-c3nc4cccnc4s3)nc(-c3ccccc3)n2)CC1 [Compound 140]
O=C(Nc1ccccc1-c1nc2cccnc2s1)c1cc(NCCCn2ccnc2)cc(-c2ccccc2)n1 [Compound 141]
Cc1cccc(-c2nc(OC[C@@H](O)CO)cc(C(=O)Nc3ccccc3-c3nc4cccnc4s3)n2)c1 [Compound 142]
COCCN(CCOC)c1cc(C(=O)Nc2ccccc2-c2nc3cccnc3s2)nc(-c2cccc(C)c2)n1 [Compound 143]
O=C(Nc1ccccc1-c1nc2cccnc2s1)c1cc(N2CCN3CCC[C@H]3C2)cc(-c2ccccc2)n1 [Compound 144]
CN(C)CCN(C)c1cc(C(=O)Nc2ccccc2-c2nc3cccnc3s2)nc(-c2ccccc2)n1 [Compound 145]
CCN(CCN(C)C)c1cc(C(=O)Nc2ccccc2-c2nc3cccnc3s2)nc(-c2ccccc2)n1 [Compound 146]
CNCCN(C)c1cc(C(=O)Nc2ccccc2-c2nc3cccnc3s2)nc(-c2ccccc2)n1 [Compound 147]
CCN1CCN(c2cc(C(=O)Nc3ccccc3-c3nc4cccnc4s3)nc(-c3ccccc3)n2)CC1=O [Compound 150]
NCCOc1cc(C(=O)Nc2ccccc2-c2nc3cccnc3s2)nc(-c2ccccc2)n1 [Compound 152]
CN(C)CCCOc1cc(C(=O)Nc2ccccc2-c2nc3cccnc3s2)nc(-c2ccccc2)n1 [Compound 153]

Same assay, conditions: SIRT1 activation; 10 nM SIRT1, 0.5 μM peptide substrate, 120 μM βNAD+, 25 minutes at 25° C.

EC1.5, A (EC1.5≧250 nM and ≦1 uM):
O=C(Nc1ccccc1-c1nc2cccnc2s1)c1cc(NC2CCN(C(=O)c3ccccc3)CC2)nc(-c2ccccc2)n1 [Compound 136]
Cc1cccc(-c2nc(OC[C@@H](O)CO)cc(C(=O)Nc3ccccc3-c3nc4cccnc4s3)n2)c1 [Compound 142]
Cc1cccc(-c2nc(C(=O)Nc3ccccc3-c3nc4cccnc4s3)cc(N3CCOCC3)n2)c1 [Compound 148]
O=C1CN(c2cc(C(=O)Nc3ccccc3-c3nc4cccnc4s3)nc(-c3ccccc3)n2)CCN1 [Compound 149]
CCN1CCN(c2cc(C(=O)Nc3ccccc3-c3nc4cccnc4s3)nc(-c3ccccc3)n2)CC1=O [Compound 150]
CN(C)CCCOc1cc(C(=O)Nc2ccccc2-c2nc3cccnc3s2)nc(-c2ccccc2)n1 [Compound 153]

EC1.5, A′ (EC1.5<250 nM):
CS(=O)(=O)N1CCC(Nc2cc(C(=O)Nc3ccccc3-c3nc4cccnc4s3)nc(-c3ccccc3)n2)CC1 [Compound 135]
COCCN(C)c1cc(C(=O)Nc2ccccc2-c2nc3cccnc3s2)nc(-c2ccccc2)c1 [Compound 137]
Cc1cccc(-c2nc(C(=O)Nc3ccccc3-c3nc4cccnc4s3)cc(N3CCN(C(C)C)CC3)n2)c1 [Compound 138]
Cc1cccc(-c2nc(C(=O)Nc3ccccc3-c3nc4cccnc4s3)cc(N3CCNCC3)n2)c1 [Compound 139]
CC(C)CN1CCC(Nc2cc(C(=O)Nc3ccccc3-c3nc4cccnc4s3)nc(-c3ccccc3)n2)CC1 [Compound 140]
O=C(Nc1ccccc1-c1nc2cccnc2s1)c1cc(NCCCn2ccnc2)cc(-c2ccccc2)n1 [Compound 141]
COCCN(CCOC)c1cc(C(=O)Nc2ccccc2-c2nc3cccnc3s2)nc(-c2cccc(C)c2)n1 [Compound 143]
O=C(Nc1ccccc1-c1nc2cccnc2s1)c1cc(N2CCN3CCC[C@H]3C2)cc(-c2ccccc2)n1 [Compound 144]
CN(C)CCN(C)c1cc(C(=O)Nc2ccccc2-c2nc3cccnc3s2)nc(-c2ccccc2)n1 [Compound 145]
CCN(CCN(C)C)c1cc(C(=O)Nc2ccccc2-c2nc3cccnc3s2)nc(-c2ccccc2)n1 [Compound 146]
CNCCN(C)c1cc(C(=O)Nc2ccccc2-c2nc3cccnc3s2)nc(-c2ccccc2)n1 [Compound 147]
CN1CCN(c2cc(C(=O)Nc3ccccc3-c3nc4cccnc4s3)nc(-c3ccccc3)n2)CC1=O [Compound 151]
NCCOc1cc(C(=O)Nc2ccccc2-c2nc3cccnc3s2)nc(-c2ccccc2)n1 [Compound 152]
